Assay results from patent publication US9169241B2, “Quinolinyloxyphenylsulfonamides” (Max-Planck-Gesellschaft Zur Forderung der Wissenschaften …, priority 2009, dated 2015).
Where two headings read alike, the source gives them in different places.

What was measured:
Format in all cases: cell-based
C8161 = experiment: Apoptosis assay (Cellomics, nucleus condensation); conditions: Homo sapiens, Table III, read-out: Apoptosis induction in C8161
Outline: (§1)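 Readout: per-nucleus Hoechst 33342 fluorescence intensity and its population variation, plus number of detected cells, by automated CCD imaging. Live cells, 5000/well; compound 0.39–12.5 μM (twofold series) vs DMSO, read at 24 h and 48 h.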

SF763 = experiment: Apoptosis assay (Cellomics, nucleus condensation); conditions: Table III, read-out: Apoptosis induction in SF763
Outline: as §1

U138 = experiment: Apoptosis assay (Cellomics, nucleus condensation); conditions: Table III, read-out: Apoptosis induction in U138
Outline: as §1

viable cells in culture = experiment: Cell viability assay at 10 μM (CellTiter-Glo, Table VII); conditions: compound 10 μM, 72 h;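 note: graded A 0-20%; B 21-40%; C 41-60%; D over 60% viable cells relative to DMSO control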
Outline: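 Cells were seeded at 1000 cells/well in 96-well plates in 100 μl culture medium and incubated for 72 h with 10 μM compound or a DMSO control. ATP content, which reflects metabolically active and therefore viable cells, was then determined by CellTiter-Glo luminescence (Promega) per the manufacturer's instructions and expressed relative to the DMSO control.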

[1] = Homo sapiens, HCT-116, HCT116 def, read-out: percentage (%) of viable cells HCT 116def
[2] = Homo sapiens, HCT-116, HCT116 wt, read-out: percentage (%) of viable cells HCT 116wt
[3] = Homo sapiens, HT-29, HT29, read-out: percentage (%) of viable cells HT29
[4] = Homo sapiens, NCI-H358, H358, read-out: percentage (%) of viable cells H358
[5] = Homo sapiens, NCI-H1650, H1650, read-out: percentage (%) of viable cells H1650
[6] = Homo sapiens, NCI-H1666, H1666, read-out: percentage (%) of viable cells H1666
[7] = Homo sapiens, NCI-H1975, H1975, read-out: percentage (%) of viable cells H1975
[8] = Homo sapiens, NCI-H1993, H1993, read-out: percentage (%) of viable cells H1993
[9] = Homo sapiens, A549, read-out: percentage (%) of viable cells A549
[10] = Homo sapiens, HCC827, read-out: percentage (%) of viable cells HCC827
[11] = Homo sapiens, SW480, read-out: percentage (%) of viable cells SW480
[12] = RKO, read-out: percentage (%) of viable cells RKO

Row | Compound | IC50 (C8161) [µM] | IC50 (SF763) [µM] | IC50 (U138) [µM] | viability at 10 µM (viable cells in culture; [1]) [%] | viability at 10 µM (viable cells in culture; [2]) [%] | viability at 10 µM (viable cells in culture; [3]) [%] | viability at 10 µM (viable cells in culture; [4]) [%] | viability at 10 µM (viable cells in culture; [5]) [%] | viability at 10 µM (viable cells in culture; [6]) [%] | viability at 10 µM (viable cells in culture; [7]) [%] | viability at 10 µM (viable cells in culture; [8]) [%] | viability at 10 µM (viable cells in culture; [9]) [%] | viability at 10 µM (viable cells in culture; [10]) [%] | viability at 10 µM (viable cells in culture; [11]) [%] | viability at 10 µM (viable cells in culture; [12]) [%]
1 | COc1cc2c(Oc3ccc(NS(=O)(=O)c4ccccc4C(F)(F)F)cc3Cl)ccnc2cc1OCCCN1CCN(C)CC1 [Example 87, N-(3-Chloro-4-{6-methoxy-7-[3-(4-methyl-piperazin-1-yl)-propoxy]-quinolin-4-yloxy}-phenyl)-2-trifluoromethyl-benzenesulfonamide] | ≤ 12.5 | ≤ 12.5 | 12.5 to 50 | 0 to 20 | 41 to 60 | 0 to 20 | 0 to 20 | 21 to 40 | 41 to 60 | 0 to 20 | 41 to 60 | > 60 | 41 to 60 | 0 to 20 | 41 to 60
2 | COc1cc2c(Oc3ccc(NS(=O)(=O)c4cccc(Oc5ccccc5)c4)cc3F)ccnc2cc1OCCCN1CCCCC1 [Example 10, N-{3-Fluoro-4-[6-methoxy-7-(3-piperidin-1-yl-propoxy)-quinolin-4-yloxy]-phenyl}-3-phenoxy-benzenesulfonamide] | ≤ 12.5 | 12.5 to 50 | ≤ 12.5 | 0 to 20 | 0 to 20 | 21 to 40 | 0 to 20 | 21 to 40 | 21 to 40 | 21 to 40 | 0 to 20 | 21 to 40 | 0 to 20 | 0 to 20 | 0 to 20

More lines, main results first:

Row | IC50 (C8161) [µM] | IC50 (SF763) [µM] | IC50 (U138) [µM] | Compound | viability at 10 µM (viable cells in culture; [1]) [%] | viability at 10 µM (viable cells in culture; [2]) [%] | viability at 10 µM (viable cells in culture; [3]) [%] | viability at 10 µM (viable cells in culture; [4]) [%] | viability at 10 µM (viable cells in culture; [5]) [%] | viability at 10 µM (viable cells in culture; [6]) [%] | viability at 10 µM (viable cells in culture; [7]) [%] | viability at 10 µM (viable cells in culture; [8]) [%] | viability at 10 µM (viable cells in culture; [9]) [%] | viability at 10 µM (viable cells in culture; [10]) [%] | viability at 10 µM (viable cells in culture; [11]) [%] | viability at 10 µM (viable cells in culture; [12]) [%]
3 | ≤ 12.5 | ≤ 12.5 | 12.5 to 50 | COc1cc2c(Oc3ccc(NS(=O)(=O)c4ccccc4Cl)cc3F)ccnc2cc1OCCCN1CCN(C)CC1 [Example 29, 2-Chloro-N-(3-fluoro-4-{6-methoxy-7-[3-(4-methyl-piperazin-1-yl)-propoxy]-quinolin-4-yloxy}-phenyl)-benzenesulfonamide] | 0 to 20 | 0 to 20 | 0 to 20 | 21 to 40 | 21 to 40 | 41 to 60 | 0 to 20 | 0 to 20 | 41 to 60 | 21 to 40 | 0 to 20 | 0 to 20
4 | ≤ 12.5 | ≤ 12.5 | ≤ 12.5 | COc1cc2c(Oc3ccc(NS(=O)(=O)c4cc(C)ccc4F)cc3F)ccnc2cc1OCCCN1CCCC(C)C1 (stereo not drawn) [Example 55] | 21 to 40 | 0 to 20 | 21 to 40 | 0 to 20 | 0 to 20 | 0 to 20 | > 60 | 0 to 20 | 21 to 40 | 41 to 60 | 21 to 40 | 41 to 60
5 | ≤ 12.5 | ≤ 12.5 | ≤ 12.5 | COc1cc2c(Oc3ccc(NS(=O)(=O)c4ccccc4Cl)cc3F)ccnc2cc1OCCCN1CCCC(C)C1 (stereo not drawn) [Example 38, 2-Chloro-N-(3-fluoro-4-{6-methoxy-7-[3-(3-methyl-piperidin-1-yl)-propoxy]-quinolin-4-yloxy}-phenyl)-benzenesulfonamide] | 21 to 40 | 21 to 40 | 0 to 20 | 0 to 20 | > 60 | 21 to 40 | 21 to 40 | 21 to 40 | > 60 | 41 to 60 | 0 to 20 | 0 to 20
